# Laboratory results as given in patent US20230027198A1 (The Rockefeller University, priority 2019, published 2023).
# Key:
# [1] = molecular target: T1, ENL YEATS domain (6×HIS ENL YEATS Domain) binding to H3K9cr peptide (Homo sapiens, UniProt Q03111); assay: TR-FRET ENL Screening Assay, FRET Assay Protocol 1; conditions: H3K9cr peptide (aa1-20)
# T1 construct: aa1-150; EpiCypher, 15-0069; purchased EpiCypher 15-0069
# T1 sequence (Q03111 1-150): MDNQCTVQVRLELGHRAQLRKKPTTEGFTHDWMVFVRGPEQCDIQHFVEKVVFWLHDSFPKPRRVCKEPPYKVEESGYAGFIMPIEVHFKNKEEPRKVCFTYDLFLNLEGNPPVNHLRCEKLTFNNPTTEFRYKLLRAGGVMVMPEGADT
# Procedure: Compounds of the invention were dissolved in DMSO at a concentration of 3 mM with subsequent dilutions in assay buffer (50 mM HEPES PH7.0, 150 mM NaCl, 0.05% BSA, 0.2% Pluronic F-127) such that the assay contained 1% DMSO. […] Low control (LC) wells received 5 uL of assay buffer instead of ENL protein. […] Compound concentration response curves were performed in duplicate over the concentration range of 0.15 nM-30 uM. The response at each compound concentration minus the LC value was converted to percent inhibition of the vehicle control group response (HC-LC). The relationship between the % inhibition and the compound concentration was analyzed using a four parameter logistic equation to estimate lower and upper asymptotes, the compound concentration producing 50% inhibition (IC50 value) and the slope at the mid-point location.
# MV4-11 cells = assay: Cell viability assay (CellTiter-Glo), 12 days; assay type: cell-based; conditions: Homo sapiens, readouts on days 4, 8 and 12, day not given
# Procedure: Cell-based assays were used to assess the ability of test compounds to reduce cell viability in both MV4:11 (MLL-AF4 MLL) and K562 cells, which were cultured in Iscove's Modified Dulbecco's medium (Gibco, 12440061) containing […]. The assays were conducted over 12 days and the cells being split on days 4 and 8. Compound concentration response curves were performed in duplicate over the concentration range of 0.15 nM-30 uM. On day 0, the compounds or vehicle were plated in a 300 nL directly into 96 well cell culture plates (Corning, 3599) with 5000 cells/well in a volume of 100 uL. Blank wells received cell culture medium. Plates were incubated for 4 days at 37° C. with 5% CO2. On days 4 and day 8 the cells were split and incubated for a further 4 days whilst an aliquot of cells were taken for the CTG readout. For the cell splitting, 270 nL of compounds or DMSO was added to a new 96 well cell culture plate to which 90 uL of medium plus 10 uL of cells from the original assay plate (after mixing) or 100 uL of medium (Blank wells) was added. This was repeated on day 8.
# Cell viability was assessed using the CellTiter-Glo® homogeneous luminescent assay kit (Promega, G9243), according to the manufacturer's instructions. This quantifies ATP, which indicates the presence of metabolically active cells. On days 4, 8 and 12, 20 ul of the remaining cell suspension was aspirated into 384-well plate (Corning 3570) to which an equal volume CellTiter-Glo reagent was. Plates were incubated for 10 minute incubation at RT prior to recording the luminescence signal using EnVision plate reader (PE, 2104). The resulting data were analyzed as follows:
# Inhibition (%)=100%×(Lumvehicie−Lumsample)/(Lumvehicle−Lumblank)
# where vehicle are cells treated with 0.3% DMSO, Blank is culture medium. IC50 determinations were calculated by fitting the curve using XLfit (v5.3.1.3): Y=Bottom+(Top−Bottom)/(1+10^((Log IC50−X)*HillSlope)).
Compound,IC50 [1],IC50 (MV4-11 cells)
"Cc1noc2cc(C(=O)Nc3cc4[nH]c(CN5CCC[C@@H]5C)cc4cn3)ccc12 [Example 1, (S)-3-methyl-N-(2-((2-methylpyrrolidin-1-yl)methyl)-1H-pyrrolo[3,2-c]pyridin-6-yl)benzo[d]isoxazole-6-carboxamide]",143 nM,0.057 µM
Cc1nn(C)c2cc(C(=O)Nc3cc4[nH]c(CN5CCC[C@@H]5C)cc4cn3)ccc12 [Example 5],125 nM,0.022 µM
Cc1nn(C)c2ccc(C(=O)Nc3cc4[nH]c(CN5CCC[C@@H]5C)cc4cn3)cc12 [Example 6],133 nM,0.061 µM
C[C@H]1CCCN1Cc1cc2cnc(NC(=O)c3ccc4cnn(C)c4c3)cc2[nH]1 [Example 7],298 nM,0.173 µM
"C[C@H]1CCCN1Cc1cc2cnc(NC(=O)c3ccc(-c4cnn(C)c4)cc3)cc2[nH]1 [Example 21, 4-(1-methylpyrazol-4-yl)-N-(2-[[(2S)-2-methylpyrrolidin-1-yl]methyl]-1H-pyrrolo[3,2-c]pyridin-6-yl)benzamide]",250 nM,0.301 µM
Cc1ccc2cc(C(=O)Nc3cc4[nH]c(CN5CCC[C@@H]5C)cc4cn3)ccc2n1 [Example 22],139 nM,0.127 µM
"C[C@H]1CCCN1Cc1cc2cnc(NC(=O)c3ccc4cc(=O)[nH]cc4c3)cc2[nH]1 [Example 23, N-(2-[[(2S)-2-methylpyrrolidin-1-yl]methyl]-1H-pyrrolo[3,2-c]pyridin-6-yl)-3-oxo-2H-isoquinoline-7-carboxamide]",208 nM,0.076 µM
"C[C@H]1CCCN1Cc1cc2cnc(NC(=O)c3ccc4oc(=O)[nH]c4c3)cc2[nH]1 [Example 24, N-(2-[[(2S)-2-methylpyrrolidin-1-yl]methyl]-1H-pyrrolo[3,2-c]pyridin-6-yl)-2-oxo-3H-1,3-benzoxazole-5-carboxamide]",1090 nM,1.46 µM
C[C@H]1CCCN1Cc1cc2cnc(NC(=O)c3ccc(-c4ccn(C)n4)cc3F)cc2[nH]1 [Example 32],1400 nM,0.455 µM
C[C@H]1CCCN1Cc1cc2cnc(NC(=O)c3ccc(-c4cnn(C)c4)cc3F)cc2[nH]1 [Example 34],227 nM,0.122 µM
"C[C@H]1CCCN1Cc1cc2cnc(NC(=O)c3ccc(-c4cn[nH]c4)cc3)cc2[nH]1 [Example 42, N-(2-[[(2S)-2-methylpyrrolidin-1-yl]methyl]-1H-pyrrolo[3,2-c]pyridin-6-yl)-4-(1H-pyrazol-4-yl)benzamide]",161 nM,0.109 µM
Cn1ncc2cc(C(=O)Nc3cc4[nH]c(CN5CC6(COC6)C5)cc4cn3)ccc21 [Example 46],306 nM,1.22 µM
Cc1n[nH]c2ccc(C(=O)Nc3cc4[nH]c(CN5CCC[C@@H]5C)cc4cn3)cc12 [Example 47],144 nM,0.128 µM
C[C@H]1CCCN1Cc1cc2cnc(NC(=O)c3ccc4[nH]nc(C5CC5)c4c3)cc2[nH]1 [Example 48],140 nM,0.057 µM
C[C@H]1CCCN1Cc1cc2cnc(NC(=O)c3ccc(-c4cnn(C(F)F)c4)cc3)cc2[nH]1 [Example 50],158 nM,0.1 µM
COCCn1cc(-c2ccc(C(=O)Nc3cc4[nH]c(CN5CCC[C@@H]5C)cc4cn3)cc2)cn1 [Example 51],187 nM,0.077 µM

Compound,IC50 [1],IC50 (MV4-11 cells)
C[C@H]1CCCN1Cc1cc2cnc(NC(=O)c3ccc(-c4cnn(CC#N)c4)cc3)cc2[nH]1 [Example 52],154 nM,0.184 µM
C[C@H]1CCCN1Cc1cc2cnc(NC(=O)c3ccc4c(C(F)F)nn(C)c4c3)cc2[nH]1 [Example 55],116 nM,0.058 µM
"CC1C(=O)Nc2cc(C(=O)Nc3cc4[nH]c(CN5CCC[C@@H]5C)cc4cn3)ccc21 (stereo partly drawn) [Example 69, 3-methyl-N-(2-[[(2S)-2-methylpyrrolidin-1-yl]methyl]-1H-pyrrolo[3,2-c]pyridin-6-yl)-2-oxo-1,3-dihydroindole-6-carboxamide]",412 nM,
COCCn1cc(-c2ccc(C(=O)Nc3cc4[nH]c(CN5CCC[C@@H]5C)cc4cn3)nc2)cn1 [Example 71],1040 nM,
COCCn1cc(-c2ccc(C(=O)Nc3cc4[nH]c(CN5CCC[C@@H]5C)cc4cn3)c(F)c2)cn1 [Example 72],364 nM,
C[C@H]1CCCN1Cc1cc2cnc(NC(=O)c3ncc(-c4cn[nH]c4)cc3F)cc2[nH]1 [Example 74],1090 nM,
C[C@H]1CCCN1Cc1cc2cnc(NC(=O)c3ccc(-n4ccnc4)cn3)cc2[nH]1 [Example 75],2340 nM,
C[C@H]1CCCN1Cc1cc2cnc(NC(=O)c3ccc(-c4c[nH]cn4)cn3)cc2[nH]1 [Example 76],1590 nM,
C[C@H]1CCCN1Cc1cc2cnc(NC(=O)c3ccc(-c4cn[nH]c4)cn3)cc2[nH]1 [Example 77],963 nM,
C[C@H]1CCCN1Cc1cc2cnc(NC(=O)c3cc4cnccc4cn3)cc2[nH]1 [Example 78],145 nM,
C[C@H]1CCCN1Cc1cc2cnc(NC(=O)c3ccc4[nH]nnc4c3)cc2[nH]1 [Example 79],511 nM,
C[C@H]1CCCN1Cc1cc2cnc(NC(=O)c3ccc(C(=N)N)cc3)cc2[nH]1 [Example 80],1900 nM,
C[C@H]1CCCN1Cc1cc2cnc(NC(=O)c3ccc(CN)cc3)cc2[nH]1 [Example 81],1200 nM,
C[C@H]1CCCN1Cc1cc2cnc(NC(=O)c3ccc4c(N)n[nH]c4c3)cc2[nH]1 [Example 83],168 nM,
C[C@H]1CCCN1Cc1cc2cnc(NC(=O)c3ccc4c(N)nn(C5CC5)c4c3)cc2[nH]1 [Example 84],177 nM,

# Now from value to compound:
IC50 [1],IC50 (MV4-11 cells),Compound
330 nM,,"CC(=O)Nc1nn(C)c2cc(C(=O)Nc3cc4[nH]c(CN5CCC[C@@H]5C)cc4cn3)ccc12 [Example 87, 3-acetamido-1-methyl-N-(2-[[(2S)-2-methylpyrrolidin-1-yl]methyl]-1H-pyrrolo[3,2-c]pyridin-6-yl)indazole-6-carboxamide]"
499 nM,,Cc1n[nH]cc1-c1ccc(C(=O)Nc2cc3[nH]c(CN4CCC[C@@H]4C)cc3cn2)cc1 [Example 89]
126 nM,,C[C@H]1CCCN1Cc1cc2cnc(NC(=O)c3ccc4c(c3)n(C)c(=O)n4C)cc2[nH]1 [Example 90]
707 nM,,C[C@H]1CCCN1Cc1cc2cnc(NC(=O)c3ccc(-n4cnnc4)cc3)cc2[nH]1 [Example 91]
214 nM,,Cc1nn(C2COC2)c2ccc(C(=O)Nc3cc4[nH]c(CN5CCC[C@@H]5C)cc4cn3)cc12 [Example 100]
126 nM,,Cc1nn(C2CS(=O)(=O)C2)c2ccc(C(=O)Nc3cc4[nH]c(CN5CCC[C@@H]5C)cc4cn3)cc12 [Example 101]
276 nM,,Cc1nn(C(F)F)c2ccc(C(=O)Nc3cc4[nH]c(CN5CCC[C@@H]5C)cc4cn3)cc12 [Example 102]
270 nM,,"Cc1n[nH]c2cc(F)c(C(=O)Nc3cnc4cc(CN5CCC[C@@H]5C)[nH]c4c3)cc12 [Example 105, 6-fluoro-3-methyl-N-(2-[[(2S)-2-methylpyrrolidin-1-yl]methyl]-1H-pyrrolo[3,2-b]pyridin-6-yl)-1H-indazole-5-carboxamide]"
94 nM,,"Cc1n[nH]c2ccc(C(=O)Nc3cc4[nH]c(CN5CCC[C@@H]5C)c(F)c4cn3)cc12 [Example 107, N-(3-fluoro-2-[[(2S)-2-methylpyrrolidin-1-yl]methyl]-1H-pyrrolo[3,2-c]pyridin-6-yl)-3-methyl-1H-indazole-5-carboxamide]"
152 nM,,Cc1n[nH]c2ccc(C(=O)Nc3cc4[nH]c(CN5CC6(C5)CC(F)(F)C6)cc4cn3)cc12 [Example 109]
200 nM,,C[C@H]1CCCN1Cc1cc2nnc(NC(=O)c3ccc4c(cnn4C)c3)cc2[nH]1 [compound 19]
416 nM,,COCCCCn1ncc2cc(C(=O)Nc3cc4[nH]c(CN5CCC[C@@H]5C)cc4cn3)ccc21 [compound 28]
763 nM,,CC(c1ccc(C(=O)Nc2cc3[nH]c(CN4CCC[C@@H]4C)cc3cn2)cc1)c1cccnc1 (stereo partly drawn) [compound 30]
170 nM,,Cc1n[nH]c2ccc(C(=O)Nc3cnc4cc(CN5CCC[C@@H]5C)[nH]c4c3)c(F)c12 [compound 106]
